Where two headings read alike, the source gives them in different places.
Columns and labels:
[1] = tested on: SW480 colon carcinoma cells; test: Cell viability assay (CellTiter-Glo) in SW480 cells; format: cell-based, human; conditions: four days
Method: SW480 colon carcinoma cells were transduced with a lentiviral vector expressing luciferase with a human Sp5 promoter consisting of a sequence of eight TCF/LEF binding sites. SW480 cells stably expressing the Sp5-Luc reporter gene and a hygromycin resistance gene were selected by treatment with 150 µg/mL of hygromycin for 7 days. These stably transduced SW480 cells were expanded in cell culture and used for all further screening activities.
For the Cell Viability Assays, the cells were plated at 2,000 cells/well in 384-well plates with a DMEM medium containing 1% fetal bovine serum, and 1% Penicillin-Streptomycin and incubated for […] at 37° C. and 5% CO2. Eight replicates of DMSO-treated cells served as controls and cells treated with compound were performed in duplicate.
After incubation, 10 μL of CellTiter-Glo (Promega) was added to each well allowed to incubate for approximately 12 minutes. This reagent “results in cell lysis and generation of a luminescent signal proportional to the amount of ATP present. The amount of ATP is directly proportional to the number of cells present in culture, in agreement with previous reports. The CellTiter-Glo® Assay generates a “glow-type” luminescent signal, produced by the luciferase reaction (Promega.com)”.

[2] = target: recombinant DYRK1A kinase (Homo sapiens (Human), UniProt Q13627); test: DYRK1A kinase assay (Ser/Thr 18 peptide Z-lyte, FRET)
Method: Each compound was dissolved in DMSO as a 10 mM stock and used to prepare compound source plates.
This is a non-radioactive assay using fluorescence resonance energy transfer (FRET) between coumarin and fluorescein to detect kinase activity which is represented as a ratio of coumarin emission/fluorescein emission.
The mixture was allowed to incubate with the representative compounds for one hour at room temperature. All reactions were performed in duplicate. Unphosphorylated (“0% Control”) and phosphorylated (“100% control”) forms of Ser/Thr 18 served as control reactions. Additionally, an 11-point dose-response curve of Staurosporine (1 uM top) was run to serve as a positive compound control.
After incubation, Development Reagent A was diluted in Development Buffer then added to the reaction and allowed to further incubate for one hour at room temperature.
Dose-response curves were generated and inhibitory concentration (IC50) values were calculated using non-linear regression curve fit in the Dotmatics' Studies Software (Bishops Stortford, UK).

[3] = tested on: primary human fibroblasts derived from IPF patients (LL29 cells), α-smooth muscle actin; test: Inhibition of fibrotic process: αSMA in TGF-β1 treated LL29 fibroblasts; format: cell-based; conditions: for EC50: LL29 cells, TGF-β1 20 ng/mL, 4 days, % cells positive for αSMA
Method: Representative compounds were screened using primary human fibroblasts (derived from IPF patients) treated with TGF-β1 to determine their ability to inhibit the fibrotic process.
LL29 cells were plated at 1,500 cells/well in 70 μL/well F12 medium supplemented with 1% Fetal Bovine Serum. […] Wells treated with TGF-β1 and containing DMSO were used as positive control, and cells with only DMSO were negative control. […] Following incubation for 4 days, SYTOX green nucleic acid stain (Life Technologies [Thermo Fisher Scientific]) was added to the wells at a final concentration of 1 μM and incubated at room temperature for 30 min.

[4] = tested on: Wnt-responsive promoter (Sp5-Luc reporter) in SW480 colon carcinoma cells; test: Sp5-Luc reporter gene screening assay for Wnt activity in SW480 cells; format: cell-based, human; conditions: 36 to 48 hours, luminescence
Source text: The screening assay for Wnt activity is described as follows. Reporter cell lines can be generated by stably transducing cancer cell lines (e.g., colon cancer) or primary cells (e.g., IEC-6 intestinal cells) with a lentiviral construct that includes a Wnt-responsive promoter driving expression of the firefly luciferase gene.
SW480 colon carcinoma cells were transduced with a lentiviral vector expressing luciferase with a human Sp5 promoter consisting of a sequence of eight TCF/LEF binding sites. SW480 cells stably expressing the Sp5-Luc reporter gene and a hygromycin resistance gene were selected by treatment with 150 μg/mL of hygromycin for 7 days. These stably transduced SW480 cells were expanded in cell culture and used for all further screening activities. […] For Sp5-Luc reporter gene assays, the cells were plated at 4,000 cells/well in 384-well plates with a DMEM medium containing 1% fetal bovine serum, and 1% Penicillin-Streptomycin and incubated for 36 to 48 hours at 37° C. and 5% CO2. Following incubation, 15 μl of BriteLite Plus luminescence reagent (Perkin Elmer) was added to each well of the 384-well assay plates. The plates were placed on an orbital shaker for 2 min and then luminescence was quantified using the Envision (Perkin Elmer) plate reader. Readings were normalized to DMSO only treated cells, and normalized activities were utilized for EC50 calculations using the dose-response log (inhibitor) vs. response −variable slope (four parameters) nonlinear regression feature available in GraphPad Prism 5.0 (or Dotmatics).

IL-6 = IL-6 inhibition in LPS-stimulated human peripheral blood mononuclear cells (HTRF); format: cell-based; conditions: for EC50: huPBMCs, LPS 50 ng/mL, 22 hours, IL-6 HTRF; for inhibition at 10 µM: read-out: percent inhibition at 10 μM
Method: Fresh Normal PB MNC (Catalog # PB001, AllCells, Alameda, Calif.) were shipped overnight at 4° C. and resuspended in Roswell Park Memorial Institute (RPMI) 1640 Medium, with GlutaMAX Supplement (Catalog #61870127, ThermoFisher Scientific, Waltham, Mass.) supplemented with 1% Penicillin-Streptomycin (Catalog #15140163, ThermoFisher Scientific, Waltham, Mass.) and 1% fetal bovine serum (FBS) (Catalog #16140089, ThermoFisher Scientific, Waltham, Mass.) assay media.
Fresh normal human peripheral blood mononuclear cells (huPBMCs) were resuspended in 1% FBS-RPMI assay media with 1% Penicillin-Streptomycin 1% to a cell concentration of 1×10e6 cells/mL. […] 50 ng/mL of Lipopolysaccharides from Escherichia coli 0111:B4 (Catalog #L5293-2ML, Sigma-Aldrich, St. Louis, Mo.) was added after 2 hours and cells were incubated for another 22 hours at 37° C.-5% CO2. After 22 hour incubation, a mixture of anti-IL6 XL665 and anti-IL-6 Cryptate diluted in reconstitution buffer (Catalog #62IL6PEC, Cisbio Inc., Bedford, Mass.) was added to each well. Following incubation for 3 hours at room temperature, Homogeneous Time-Resolved Fluorescence (HTRF) was measured using the Envision (Perkin Elmer, Shelton, Conn.) at 665 nm and […]. The ratio of fluorescence at 665 nm to 620 nm was used as a readout for IL-6 quantification. All samples were processed in duplicate. Readings were normalized to DMSO treated cells and normalized activities were utilized for EC50 calculations. EC50 was determined using software generated by Dotmatics Limited (Windhill Bishops Stortford Herts, UK) using the Levenberg-Marquardt 4 parameter fitting procedure with finite different gradients.

recombinant GSK3β kinase = recombinant GSK3β kinase (Homo sapiens (Human), UniProt P49841); test: GSK3β kinase assay (Ser/Thr 09 peptide Z-lyte, FRET); format: biochemical
[5] = DYRK1A kinase, 30 μM ATP, one hour, method calls values IC50
[6] = GSK3β kinase, 46 μM ATP, one hour, method calls values IC50

Sequence of recombinant GSK3β kinase (P49841 whole entry): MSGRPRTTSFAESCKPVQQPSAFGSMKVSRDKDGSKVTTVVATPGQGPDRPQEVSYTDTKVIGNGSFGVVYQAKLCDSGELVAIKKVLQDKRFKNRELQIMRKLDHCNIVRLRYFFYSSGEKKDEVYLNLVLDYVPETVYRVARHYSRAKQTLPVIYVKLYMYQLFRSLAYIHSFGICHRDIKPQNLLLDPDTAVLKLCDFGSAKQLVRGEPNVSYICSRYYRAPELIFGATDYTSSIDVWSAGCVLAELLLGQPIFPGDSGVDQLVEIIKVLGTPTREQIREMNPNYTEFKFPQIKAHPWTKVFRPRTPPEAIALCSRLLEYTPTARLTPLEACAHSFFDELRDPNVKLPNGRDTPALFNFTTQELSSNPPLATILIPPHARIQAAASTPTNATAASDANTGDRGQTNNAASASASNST

Molecule	EC50 [1]	EC50 [2, 5]	EC50 [4]	EC50 (IL-6)	EC50 (recombinant GSK3β kinase; [6])	EC50 ([1]; Homo sapiens, 96 h)	EC50 ([4]; Homo sapiens)	EC50 (IL-6; Homo sapiens, PBMC)	EC50 [2]	EC50 (recombinant GSK3β kinase)	EC50 [3]	EC50 ([3]; Homo sapiens, Fibroblast, 96 h)	inhibition at 10 µM ([3]; Homo sapiens, Fibroblast, read-out: percent inhibition at 10 μM)	inhibition at 10 µM (IL-6; Homo sapiens, PBMC)
CC(C)n1cc(C(=O)Nc2cc3cc(-c4cnn(C5CCN(C)CC5)c4)ccc3cn2)cn1 [Compound 1, 1-Isopropyl-N-(6-(1-(1-methylpiperidin-4-yl)-1H-pyrazol-4-yl)isoquinolin-3-yl)-1H-pyrazole-4-carboxamide]		39 nM			9990 nM	608 nM	387 nM	3440 nM				953 nM		
[2H]C([2H])([2H])n1cc(-c2ccc3cnc(NC(=O)c4cnn(C5CCNCC5)c4)cc3c2)cn1 [Compound 3, N-(6-(1-(Methyl-d3)-1H-pyrazol-4-yl)isoquinolin-3-yl)-1-(piperidin-4-yl)-1H-pyrazole-4-carboxamide]						38 nM	23 nM	1040 nM	3 nM	> 10000 nM		74 nM		
CN1CCC(n2cc(C(=O)Nc3cc4cc(-c5cnn(C)c5)ccc4cn3)cn2)CC1 [Compound 4, N-(6-(1-Methyl-1H-pyrazol-4-yl)isoquinolin-3-yl)-1-(1-methylpiperidin-4-yl)-1H-pyrazole-4-carboxamide]		2 nM			1480 nM	35 nM	14 nM	89 nM				94 nM		
[2H]C([2H])([2H])n1cc(-c2ccc3cnc(NC(=O)c4cnn(C5CCN(C)CC5)c4)cc3c2)cn1 [Compound 5, N-(6-(1-(Methyl-d3)-1H-pyrazol-4-yl)isoquinolin-3-yl)-1-(1-methylpiperidin-4-yl)-1H-pyrazole-4-carboxamide]						34 nM	22 nM	218 nM	2 nM	2060 nM		84 nM		
CCN1CCC(n2cc(C(=O)Nc3cc4cc(-c5cnn(C)c5)ccc4cn3)cn2)CC1 [Compound 6, 1-(1-Ethylpiperidin-4-yl)-N-(6-(1-methyl-1H-pyrazol-4-yl)isoquinolin-3-yl)-1H-pyrazole-4-carboxamide]		3 nM			1700 nM	32 nM	15 nM	129 nM				69 nM		
Cn1cc(-c2ccc3cnc(NC(=O)c4cnn(C5CCN(CCF)CC5)c4)cc3c2)cn1 [Compound 7, 1-(1-(2-Fluoroethyl)piperidin-4-yl)-N-(6-(1-methyl-1H-pyrazol-4-yl)isoquinolin-3-yl)-1H-pyrazole-4-carboxamide]		3 nM			1500 nM	77 nM	35 nM	145 nM				47 nM		
Cn1cc(-c2ccc3cnc(NC(=O)c4cnn(C5CCN(C6CC6)CC5)c4)cc3c2)cn1 [Compound 9, 1-(1-cyclopropylpiperidin-4-yl)-N-(6-(1-methyl-1H-pyrazol-4-yl)isoquinolin-3-yl)-1H-pyrazole-4-carboxamide]		2 nM			1660 nM	104 nM	39 nM	1100 nM				> 10000 nM	33.4%	
Cn1cc(-c2ccc3cnc(NC(=O)c4cn(C5CCNCC5)nn4)cc3c2)cn1 [Compound 11, N-(6-(1-Methyl-1H-pyrazol-4-yl)isoquinolin-3-yl)-1-(piperidin-4-yl)-1H-1,2,3-triazole-4-carboxamide]		7 nM			9990 nM	273 nM		2630 nM				607 nM		
CN1CCC(n2cc(C(=O)Nc3cc4cc(-c5cnn(C)c5)ccc4cn3)nn2)CC1 [Compound 12, N-(6-(1-Methyl-1H-pyrazol-4-yl)isoquinolin-3-yl)-1-(1-methylpiperidin-4-yl)-1H-1,2,3-triazole-4-carboxamide]		9 nM			3630 nM	470 nM	105 nM	3750 nM				983 nM		

Further lines, with some results ahead:

EC50 [1]	EC50 [2, 5]	EC50 [4]	EC50 (IL-6)	EC50 (recombinant GSK3β kinase; [6])	EC50 ([1]; Homo sapiens, 96 h)	EC50 ([4]; Homo sapiens)	EC50 (IL-6; Homo sapiens, PBMC)	EC50 [2]	EC50 (recombinant GSK3β kinase)	Molecule	EC50 [3]	EC50 ([3]; Homo sapiens, Fibroblast, 96 h)	inhibition at 10 µM ([3]; Homo sapiens, Fibroblast, read-out: percent inhibition at 10 μM)	inhibition at 10 µM (IL-6; Homo sapiens, PBMC)
1190 nM	26 nM	70 nM	7590 nM	3710 nM						2-(1-Isopropylpiperidin-4-yl)-N-(6-(1-methyl-1H-pyrazol-4-yl)isoquinolin-3-yl)thiazole-4-carboxamide [Compound 39]	3040 nM			
	5 nM			2080 nM	485 nM	120 nM	3390 nM			Cn1cc(-c2ccc3cnc(NC(=O)c4cn(C5CCN(CCF)CC5)nn4)cc3c2)cn1 [Compound 13, 1-(1-(2-Fluoroethyl)piperidin-4-yl)-N-(6-(1-methyl-1H-pyrazol-4-yl)isoquinolin-3-yl)-1H-1,2,3-triazole-4-carboxamide]		260 nM		
	6 nM			2750 nM	240 nM	95 nM	> 10000 nM			CC(C)N1CCC(n2cc(C(=O)Nc3cc4cc(-c5cnn(C)c5)ccc4cn3)nn2)CC1 [Compound 14, 1-(1-Isopropylpiperidin-4-yl)-N-(6-(1-methyl-1H-pyrazol-4-yl)isoquinolin-3-yl)-1H-1,2,3-triazole-4-carboxamide]		410 nM		46%
					113 nM	115 nM	1070 nM	16 nM	769 nM	[2H]C([2H])([2H])n1cc(-c2ccc3cnc(NC(=O)c4coc(C5CCNCC5)n4)cc3c2)cn1 [Compound 16, N-(6-(1-(Methyl-d3)-1H-pyrazol-4-yl)isoquinolin-3-yl)-2-(piperidin-4-yl) oxazole-4-carboxamide]		312 nM		
	16 nM			1330 nM	1260 nM		> 10000 nM			Cn1cc(-c2ccc3cnc(NC(=O)c4coc(C5CCN(CCF)CC5)n4)cc3c2)cn1 [Compound 21, 2-(1-(2-Fluoroethyl)piperidin-4-yl)-N-(6-(1-methyl-1H-pyrazol-4-yl)isoquinolin-3-yl)oxazole-4-carboxamide]		9620 nM		27.2%
